From patent publication US10300065B2, “Method of treating or prevention of atherothrombotic events in patients with history of myocardial infarction” (ASTRAZENECA AB, priority 2015, dated 2019)

Tested on: patients with a history of myocardial infarction
Experiment: PEGASUS-TIMI 54 trial, efficacy endpoints (intention-to-treat / full analysis set)
Type: in vivo, human
Excerpt: The PEGASUS-TIMI 54 trial (also referred to as the PEGASUS trial or PEGASUS study herein) was a randomized, double-blind, placebo-controlled multinational clinical trial that enrolled over 21,000 patients at 1,161 sites in 31 countries. The protocol was approved by the relevant ethics committees at all participating sites. In the U.S., the PEGASUS trial was assigned a ClinicalTrials.gov number of NCT01225562.
Patients could be randomized regardless of their prior adenosine diphosphate (ADP) receptor blocker therapy or a lapse in therapy.
Randomization was performed using a central computerized telephone or web based system, and allocation was double-blind.
All patients enrolled in the PEGASUS trial were instructed to take open label aspirin at a dose of 75 to 150 mg daily.
A total of 1360 primary endpoint events would be required to provide approximately 90% power to detect a 20% relative risk reduction with the 90 mg twice daily dose and approximately 83% power to detect a 19% relative risk reduction with the 60 mg twice daily dose when each dose was compared individually with placebo. The primary efficacy analysis was conducted on an intention-to-treat basis, with each of the two doses individually compared to placebo, as a time to event analysis from randomization to the first occurrence of any element of the primary composite endpoint: cardiovascular death, myocardial infarction, or stroke. […] An exploratory analysis of both doses combined compared with placebo was prespecified.

[1] = 60 mg bd, 5695 patients with a coronary stent
[2] = 60 mg bid (N = 7045), at 3 years
[3] = 60 mg bid vs. placebo (N = 6958)
[4] = 90 mg bd, 5651 patients with a coronary stent

CCCSc1nc(N[C@@H]2C[C@H]2c2ccc(F)c(F)c2)c2nnn([C@@H]3C[C@H](OCCO)[C@@H](O)[C@H]3O)c2n1 [Ticagrelor, (1S,2S,3R,5S)-3-[7-{[(1R,2S)-2-(3,4-difluorophenyl)cyclopropyl]amino}-5-(propylthio)-3H-[1,2,3]-triazolo[4,5-d]pyrimidin-3-yl]-5-(2-hydroxyethoxy)cyclopentane-1,2-diol]
Time to first stent thrombosis: HR (60 mg bd vs placebo): 0.82
Composite of CV Death/MI/Stroke, landmark: KM % at 12 months (60 mg bd, 1-360 days): 2.7%
Composite of CV Death/MI/Stroke, landmark: Patients with events (60 mg bd, 1-360 days): 189
Composite of CV Death/MI/Stroke, landmark: Patients with events (%) (60 mg bd, 1-360 days): (2.7%)
Stent thrombosis: Patients (%) with events [1]: (0.7%)
Stent thrombosis: Patients with events [1]: 41
Composite of CV Death/MI/Stroke, landmark: Patients with events (60 mg bd, 361 days or more): 298
Composite of CV Death/MI/Stroke, landmark: Patients with events (%) (60 mg bd, 361 days or more): (4.4%)
Stent thrombosis: KM % (60 mg bd, at 36 months): 0.8%
Composite of CV Death/MI/Stroke, landmark: KM % at 24 months (60 mg bd, cumulative from day 361 to day 720): 2.7%
Composite of CV Death/MI/Stroke, landmark: KM % at 36 months (60 mg bd, cumulative from day 361 to day 1080): 5.2%
MI: ARR (%) (60 mg bid): 0.72%
MI: NNT (60 mg bid): 139
Stroke: ARR (%) (60 mg bid): 0.47%
Stroke: NNT (60 mg bid): 213
All Stroke: n (60 mg bid (N = 7045)): 91
Cardiovascular Death or Myocardial infarction: 3-year Kaplan-Meier estimate (60 mg bid (N = 7045)): (6.77) %
Cardiovascular Death or Myocardial infarction: n (60 mg bid (N = 7045)): 422
Cardiovascular Death, Myocardial infarction, or Stroke: 3-year Kaplan-Meier estimate (60 mg bid (N = 7045)): 7.77%
Cardiovascular Death, Myocardial infarction, or Stroke: n (60 mg bid (N = 7045)): 487
Cardiovascular Death: n (60 mg bid (N = 7045)): 174
Coronary Heart Disease Death or Myocardial infarction: 3-year Kaplan-Meier estimate (60 mg bid (N = 7045)): (5.57) %
Coronary Heart Disease Death or Myocardial infarction: n (60 mg bid (N = 7045)): 360
Coronary Heart Disease Death, Myocardial infarction, or Stroke: 3-year Kaplan-Meier estimate (60 mg bid (N = 7045)): (7.09) %
Coronary Heart Disease Death, Myocardial infarction, or Stroke: n (60 mg bid (N = 7045)): 445
Coronary Heart Disease Death: 3-year Kaplan-Meier estimate (60 mg bid (N = 7045)): (1.72) %
Coronary Heart Disease Death: n (60 mg bid (N = 7045)): 106
Death from any cause: n (60 mg bid (N = 7045)): 289
Hospitalization for Unstable Angina: n (60 mg bid (N = 7045)): 39
Ischemic Stroke: 3-year Kaplan-Meier estimate (60 mg bid (N = 7045)): (1.28) %
Ischemic Stroke: n (60 mg bid (N = 7045)): 78
Myocardial infarction as first-occurring component of the composite: n (patients with event) (60 mg bid (N = 7045)): 283
Myocardial infarction: n (60 mg bid (N = 7045)): 285
Stroke as first-occurring component of the composite: n (patients with event) (60 mg bid (N = 7045)): 88
Transient Ischemic Attack: n (60 mg bid (N = 7045)): 17
Urgent Coronary Revascularization for Unstable Angina: n (60 mg bid (N = 7045)): 62
Hospitalization for Unstable Angina: (%) [2]: (0.61) %
Transient Ischemic Attack: (%) [2]: (0.27) %
Urgent Coronary Revascularization for Unstable Angina: (%) [2]: (0.95) %
Cardiovascular Death or Myocardial infarction: HR (60 mg bid vs Placebo): 0.85
Cardiovascular Death, Myocardial infarction, or Stroke: HR (60 mg bid vs Placebo): 0.84
Cardiovascular Death: HR (60 mg bid vs Placebo): 0.83
Coronary Heart Disease Death or Myocardial infarction: HR (60 mg bid vs Placebo): 0.84
Coronary Heart Disease Death, Myocardial infarction, or Stroke: HR (60 mg bid vs Placebo): 0.83
Coronary Heart Disease Death: HR (60 mg bid vs Placebo): 0.80
Coronary stent thrombosis: RRR (60 mg bid vs Placebo): 18%
Death from any cause: HR (60 mg bid vs Placebo): 0.89
Hospitalization for Unstable Angina: HR (60 mg bid vs Placebo): 1.05
Ischemic Stroke: HR (60 mg bid vs Placebo): 0.76
Transient Ischemic Attack: HR (60 mg bid vs Placebo): 1.00
Urgent Coronary Revascularization for Unstable Angina: HR (60 mg bid vs Placebo): 0.82
coronary heart disease death, myocardial infarction, or stroke: RRR (60 mg bid vs Placebo): 17%
Irreversible harm (CV death, MI, stroke, ICH, or fatal bleeding): HR [3]: 0.86
Irreversible harm (CV death, MI, stroke, ICH, or fatal bleeding): RRR (%) [3]: 14%
Net clinical benefit (CV death, MI, stroke, or TIMI major bleeding): HR [3]: 0.95
Net clinical benefit (CV death, MI, stroke, or TIMI major bleeding): RRR (%) [3]: 5%
ischemic events prevented if 10,000 patients were started on treatment versus placebo (60 mg bid, intention-to-treat data): 42
Time to first stent thrombosis: HR (90 mg bd vs placebo): 0.64
Composite of CV Death/MI/Stroke, landmark: KM % at 12 months (90 mg bd, 1-360 days): 2.8%
Composite of CV Death/MI/Stroke, landmark: Patients with events (90 mg bd, 1-360 days): 198
Composite of CV Death/MI/Stroke, landmark: Patients with events (%) (90 mg bd, 1-360 days): (2.8%)
Stent thrombosis: Patients (%) with events [4]: (0.6%)
Stent thrombosis: Patients with events [4]: 32
Composite of CV Death/MI/Stroke, landmark: Patients with events (90 mg bd, 361 days or more): 295
Composite of CV Death/MI/Stroke, landmark: Patients with events (%) (90 mg bd, 361 days or more): (4.4%)
